Where no end group is shown, it is not given here.
Experiments:
[1] = target: complex of peptide 25 (aa 240-254) of M. tuberculosis Ag85B and the mouse MHC II allele I-A^b (Mycobacterium tuberculosis; mouse) (UniProt P14434); test: cell-based or functional assay
[2] = mouse, in vivo; for signs of toxicity: iv

Row | Substance | frequency of IFN-γ+ P25TCRTh1 cells in the lungs of H37Rv-infected mice six hours after intravenous peptide 25 [1] | morbidity or mortality [2] | signs of toxicity [2]
1 | P25TCR transgenic T-cell antigen receptor (on P25TCRTh1 CD4+ Th1 effector cells from P25TCR-Tg mice) | 20 to 50% |  | 
2 | FQDAYNAAGGHNAVF [peptide 25, FQDAYNAAGGHNAVF] |  | no morbidity or mortality was observed | Neither group of mice displayed any signs of toxicity
3 | ISQAVHAAHAEINEAGR [OVA peptide, ISQAVHAAHAEINEAGR, reference compound] |  |  | Neither group of mice displayed any signs of toxicity

From patent publication US20130243801A1, “EPITOPE THERAPY FOR INFECTIOUS DISEASES” (NEW YORK UNIVERSITY, priority 2010, published 2013)
